From ChEMBL document CHEMBL1141686, “Discovery of a novel class of PPARdelta partial agonists” (Bioorg Med Chem Lett, 2008)

target: T1, Peroxisome proliferator-activated receptor alpha (Homo sapiens, UniProt Q07869)
T1 sequence (Q07869 whole entry): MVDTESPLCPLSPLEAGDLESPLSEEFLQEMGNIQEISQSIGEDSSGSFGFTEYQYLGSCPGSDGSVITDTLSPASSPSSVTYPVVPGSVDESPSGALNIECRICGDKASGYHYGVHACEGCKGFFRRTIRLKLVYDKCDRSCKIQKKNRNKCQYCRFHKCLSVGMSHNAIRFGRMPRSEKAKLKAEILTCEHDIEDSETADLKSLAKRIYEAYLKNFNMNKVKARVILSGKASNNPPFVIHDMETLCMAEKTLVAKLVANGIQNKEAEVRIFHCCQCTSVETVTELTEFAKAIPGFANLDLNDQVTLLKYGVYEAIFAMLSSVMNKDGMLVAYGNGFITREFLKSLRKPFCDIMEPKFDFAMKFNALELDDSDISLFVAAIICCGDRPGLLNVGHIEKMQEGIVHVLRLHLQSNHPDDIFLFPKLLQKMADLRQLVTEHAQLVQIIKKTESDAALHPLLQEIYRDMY

Question: COc1ccc2ccn(S(=O)(=O)c3cccc(C(=O)Nc4ccc(C)cc4C(=O)O)c3)c2c1 was tested. Which IC50 did it give?
Answer: 3.98 µM

Question: COc1cccc2c1ccn2S(=O)(=O)c1cccc(C(=O)Nc2ccc(Cl)cc2C(=O)O)c1 was tested. Which IC50 did it give?
Answer: 0.794 µM

Question: How did the IC50 turn out when COc1ccc2ccn(S(=O)(=O)c3cccc(C(=O)Nc4ccc(Cl)cc4C(=O)O)c3)c2c1 was run?
Answer: 1.58 µM

Question: With Cc1ccc(NC(=O)c2cccc(S(=O)(=O)n3ccc4cccc(Cl)c43)c2)c(C(=O)O)c1 as the molecule, how does the IC50 read?
Answer: 3.16 µM

Question: For COc1ccc2c(ccn2S(=O)(=O)c2cccc(C(=O)Nc3ccc(Cl)cc3C(=O)O)c2)c1, which IC50 is on record?
Answer: 3.16 µM

Question: COc1cccc2c1ccn2S(=O)(=O)c1cccc(C(=O)Nc2ccc(C)cc2C(=O)O)c1 was tested. Which IC50 did it give?
Answer: 1.26 µM

Question: Which IC50 does the source give for COc1cccc2ccn(S(=O)(=O)c3cccc(C(=O)Nc4ccc(C)cc4C(=O)O)c3)c12 here?
Answer: > 10 µM

Question: Which IC50 does the source give for Cc1ccc(NC(=O)c2cccc(S(=O)(=O)n3ccc4cccc(C)c43)c2)c(C(=O)O)c1 here?
Answer: 1.58 µM

Question: Cc1cccc(NC(=O)c2cccc(S(=O)(=O)N3CCc4ccccc4C3)c2)c1C(=O)O was tested. Which IC50 did it give?
Answer: > 10 µM

Question: How did the IC50 turn out when Cc1ccc(NC(=O)c2cccc(S(=O)(=O)n3ccc4cc(C)ccc43)c2)c(C(=O)O)c1 was run?
Answer: 1 µM

Question: Cc1ccc(NC(=O)c2cccc(S(=O)(=O)n3ccc4ccc(Cl)cc43)c2)c(C(=O)O)c1 was tested. Which IC50 did it give?
Answer: 3.16 µM

Question: Which IC50 does the source give for COc1ccc2c(ccn2S(=O)(=O)c2cccc(C(=O)Nc3ccc(C)cc3C(=O)O)c2)c1 here?
Answer: 7.94 µM

Question: How did the IC50 turn out when Cc1cccc(C(=O)O)c1NC(=O)c1cccc(S(=O)(=O)N2CCc3ccccc3C2)c1 was run?
Answer: > 10 µM

Question: For O=C(O)COc1cccc2c1CCN(S(=O)(=O)c1cccc(C(=O)Nc3ccc(Cl)cc3C(=O)O)c1)C2, which IC50 is on record?
Answer: 5.01 µM

Question: With Cc1ccc(NC(=O)c2cccc(S(=O)(=O)n3ccc4c(C)cccc43)c2)c(C(=O)O)c1 as the molecule, how does the IC50 read?
Answer: 1 µM
